Data as given in article PMC7998700, “Mycobacterial Epoxide Hydrolase EphD Is Inhibited by Urea and Thiourea Derivatives” (International Journal of Molecular Sciences, 2021).

Assays:
EphF [1] = target: T1, EphF (Mycobacterium tuberculosis, UniProt P96811); assay: radio-TLC epoxide hydrolase assay, E. coli lysate supernatant; format: biochemical; conditions: substrate [14C]-9,10-cis-epoxystearic acid; 50 mM Tris-HCl pH 7.5, 37 °C, 15 min; without EthA; 2% DMSO
EphD [2] = target: T2, EphD (Mycobacterium tuberculosis, UniProt P9WGS3); assay: as above; format: biochemical; conditions: substrate [14C]-9,10-cis-epoxystearic acid; 50 mM Tris-HCl pH 7.5, 37 °C, 15 min; without EthA; 2% DMSO
T2 sequence (P9WGS3 whole entry): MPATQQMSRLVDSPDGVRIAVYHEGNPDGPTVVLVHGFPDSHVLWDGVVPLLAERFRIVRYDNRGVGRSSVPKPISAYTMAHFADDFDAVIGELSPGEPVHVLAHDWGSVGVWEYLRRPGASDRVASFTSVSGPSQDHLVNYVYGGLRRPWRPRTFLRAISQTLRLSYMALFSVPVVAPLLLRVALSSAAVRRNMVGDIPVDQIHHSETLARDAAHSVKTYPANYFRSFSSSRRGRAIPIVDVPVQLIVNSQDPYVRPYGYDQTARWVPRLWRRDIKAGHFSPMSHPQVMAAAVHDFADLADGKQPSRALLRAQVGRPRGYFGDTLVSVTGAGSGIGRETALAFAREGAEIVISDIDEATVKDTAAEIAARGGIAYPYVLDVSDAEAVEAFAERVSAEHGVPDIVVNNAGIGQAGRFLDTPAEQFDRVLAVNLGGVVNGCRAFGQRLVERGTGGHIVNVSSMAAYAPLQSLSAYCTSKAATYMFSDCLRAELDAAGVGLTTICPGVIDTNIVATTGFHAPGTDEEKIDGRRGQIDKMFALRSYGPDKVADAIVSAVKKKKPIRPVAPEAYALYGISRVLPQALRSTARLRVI

EphF [3] = target: T1, EphF
EphA = EphA (Mycobacterium tuberculosis, UniProt I6YGS0)
EphA, sequence (I6YGS0 whole entry): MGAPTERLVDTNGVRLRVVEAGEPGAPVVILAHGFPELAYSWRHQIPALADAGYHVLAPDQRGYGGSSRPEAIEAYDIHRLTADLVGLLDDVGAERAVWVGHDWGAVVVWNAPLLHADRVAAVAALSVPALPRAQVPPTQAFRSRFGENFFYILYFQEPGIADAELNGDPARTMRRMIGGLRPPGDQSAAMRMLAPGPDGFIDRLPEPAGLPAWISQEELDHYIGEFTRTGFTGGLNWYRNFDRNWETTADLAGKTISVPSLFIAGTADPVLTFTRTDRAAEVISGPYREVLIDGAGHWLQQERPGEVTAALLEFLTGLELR

EphB = EphB (Mycobacterium tuberculosis, UniProt I6YC03); assay: radio-TLC substrate conversion to diol, E. coli lysate supernatant; format: biochemical; conditions: 50 mM Tris-HCl pH 7.5, 37 °C; labelled compound
EphB, sequence (I6YC03 whole entry): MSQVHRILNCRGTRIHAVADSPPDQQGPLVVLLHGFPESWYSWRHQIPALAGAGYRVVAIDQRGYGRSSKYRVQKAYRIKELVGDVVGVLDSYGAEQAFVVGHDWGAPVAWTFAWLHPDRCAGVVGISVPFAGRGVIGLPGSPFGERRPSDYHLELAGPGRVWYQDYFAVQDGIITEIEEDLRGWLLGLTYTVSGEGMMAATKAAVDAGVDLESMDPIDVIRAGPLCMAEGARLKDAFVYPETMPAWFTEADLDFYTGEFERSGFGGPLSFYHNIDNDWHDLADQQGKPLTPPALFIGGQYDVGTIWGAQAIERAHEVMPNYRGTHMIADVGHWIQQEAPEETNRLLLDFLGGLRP

EphD [4] = target: T2, EphD
EphE = EphE (Mycobacterium tuberculosis, UniProt I6YCQ4)
EphE, sequence (I6YCQ4 entry or part of it): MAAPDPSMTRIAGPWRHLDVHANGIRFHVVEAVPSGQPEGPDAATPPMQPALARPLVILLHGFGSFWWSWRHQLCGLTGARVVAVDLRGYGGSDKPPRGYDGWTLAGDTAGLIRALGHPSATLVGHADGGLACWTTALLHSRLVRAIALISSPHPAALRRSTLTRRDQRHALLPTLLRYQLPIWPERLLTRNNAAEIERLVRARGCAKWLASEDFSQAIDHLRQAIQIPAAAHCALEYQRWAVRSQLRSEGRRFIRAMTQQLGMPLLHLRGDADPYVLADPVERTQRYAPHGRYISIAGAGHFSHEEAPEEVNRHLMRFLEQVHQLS

EphG = EphG (Mycobacterium tuberculosis, UniProt O33283)
EphG, sequence (O33283 whole entry): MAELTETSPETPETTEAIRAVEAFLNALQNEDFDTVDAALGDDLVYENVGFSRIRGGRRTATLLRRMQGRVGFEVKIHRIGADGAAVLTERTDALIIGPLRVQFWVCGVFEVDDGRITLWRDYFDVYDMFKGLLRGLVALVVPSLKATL

T1 sequence (P96811 entry or part of it): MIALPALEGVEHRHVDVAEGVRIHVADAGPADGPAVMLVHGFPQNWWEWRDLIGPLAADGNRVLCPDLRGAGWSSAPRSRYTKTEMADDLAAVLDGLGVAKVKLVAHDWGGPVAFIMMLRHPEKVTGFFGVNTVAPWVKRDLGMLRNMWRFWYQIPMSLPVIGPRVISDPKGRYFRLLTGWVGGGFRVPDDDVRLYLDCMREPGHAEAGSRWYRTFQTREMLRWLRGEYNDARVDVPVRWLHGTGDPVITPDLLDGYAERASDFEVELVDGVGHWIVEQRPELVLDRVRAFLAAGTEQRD

Row | Structure (SMILES) | % inhibition at 10 μg/mL (EphF [1]) | % inhibition at 10 μg/mL (EphD [2]) | radio-TLC substrate conversion to diol, E. coli lysate supernatant (EphF [3]) | radio-TLC substrate conversion to diol, E. coli lysate supernatant (EphA) | radio-TLC substrate conversion to diol, E. coli lysate supernatant (EphB) | radio-TLC substrate conversion to diol, E. coli lysate supernatant (EphD [4]) | radio-TLC substrate conversion to diol, E. coli lysate supernatant (EphE) | radio-TLC substrate conversion to diol, E. coli lysate supernatant (EphG)
1 | CC(C)CCOc1ccc(NC(=S)Nc2ccc(OCCC(C)C)cc2)cc1 [ISO, 4,4′-diisoamyloxydiphenylthiourea] | The activities of EphD and EphF are inhibited by ISO | The activities of EphD and EphF are inhibited by ISO |  |  |  |  |  | 
2 | CCCCCCCC[C@H]1O[C@H]1CCCCCCCC(=O)O [9,10-cis-epoxystearic acid] |  |  | The EH activity in each reaction was expressed as a substrate conversion percentage | The EH activity in each reaction was expressed as a substrate conversion percentage | The EH activity in each reaction was expressed as a substrate conversion percentage | The EH activity in each reaction was expressed as a substrate conversion percentage | The EH activity in each reaction was expressed as a substrate conversion percentage | The EH activity in each reaction was expressed as a substrate conversion percentage
